In patent publication US20160113282A1 (HONBU SANKEI CO., LTD., priority 2013, published 2016):

How the values were obtained:
[1] = system: feline calicivirus F4 strain; experiment: In vitro test in test tube, feline caliciviruses (Example 11); assay type: cell-based
HEp-2 cells = conditions: human, 20 min
feline caliciviruses = experiment: Sterilizing solution wrung from wet wipe, feline caliciviruses (Example 11)

With `OCl` [Sodium hypochlorite aqueous solution, sodium hypochlorite] the “number of infectious viruses” value ([1]; pH 7.5, 200 ppm, contact 1 min) was 2.5 ± 1.8 log CPU/mL, the “number of infectious viruses” value ([1]; pH 7.5, 200 ppm, contact 5 min) was <2.0 log CPU/mL and the “number of infectious viruses” value ([1]; pH 7.5, 200 ppm, contact 10 min) was <2.0 log CPU/mL. For the same compound, the “number of infectious viruses” value ([1]; pH 7.5, 400 ppm, contact 0 min) was 5.2 ± 2.6 log CPU/mL, the “number of infectious viruses” value ([1]; pH 7.5, 400 ppm, contact 1 min) was <2.0 log CPU/mL and the “number of infectious viruses” value ([1]; pH 7.5, 400 ppm, contact 5 min) was <2.0 log CPU/mL. For the same compound, the “number of infectious viruses” value ([1]; pH 7.5, 400 ppm, contact 10 min) was <2.0 log CPU/mL, the “number of infectious viruses” value ([1]; pH 8.5, 25 ppm, contact 0 min) was 4.7 ± 2.8 log CPU/mL and the “number of infectious viruses” value ([1]; pH 8.5, 50 ppm, contact 0 min) was 4.7 ± 2.8 log CPU/mL. The “number of infectious viruses” value ([1]; pH 8.5, 50 ppm, contact 1 min) was 4.6 ± 3.2 log CPU/mL, the “number of infectious viruses” value ([1]; pH 8.5, 50 ppm, contact 5 min) was 3.5 ± 2.1 log CPU/mL and the “number of infectious viruses” value ([1]; pH 8.5, 50 ppm, contact 10 min) was <2.0 log CPU/mL. The “number of infectious viruses” value ([1]; pH 8.5, 100 ppm, contact 0 min) was 4.7 ± 2.8 log CPU/mL, the “number of infectious viruses” value ([1]; pH 8.5, 100 ppm, contact 1 min) was 3.7 ± 2.6 log CPU/mL and the “number of infectious viruses” value ([1]; pH 8.5, 100 ppm, contact 5 min) was <2.0 log CPU/mL. The “number of infectious viruses” value ([1]; pH 8.5, 100 ppm, contact 10 min) was <2.0 log CPU/mL, the “number of infectious viruses” value ([1]; pH 8.5, 200 ppm, contact 0 min) was 4.7 ± 2.8 log CPU/mL and the “number of infectious viruses” value ([1]; pH 8.5, 200 ppm, contact 1 min) was 2.5 ± 2.3 log CPU/mL. For the same compound, the “number of infectious viruses” value ([1]; pH 8.5, 200 ppm, contact 5 min) was <2.0 log CPU/mL, the “number of infectious viruses” value ([1]; pH 8.5, 200 ppm, contact 10 min) was <2.0 log CPU/mL and the “number of infectious viruses” value ([1]; pH 8.5, 400 ppm, contact 0 min) was 4.7 ± 2.8 log CPU/mL. The “number of infectious viruses” value ([1]; pH 8.5, 400 ppm, contact 1 min) was <2.0 log CPU/mL, the “number of infectious viruses” value ([1]; pH 8.5, 400 ppm, contact 5 min) was <2.0 log CPU/mL and the “number of infectious viruses” value ([1]; pH 8.5, 400 ppm, contact 10 min) was <2.0 log CPU/mL. For the same compound, the “number of infectious viruses” value ([1]; pH unadjusted, 25 ppm, contact 0 min) was 6.4 ± 2.7 log CPU/mL, the “number of infectious viruses” value ([1]; pH unadjusted, 25 ppm, contact 10 min) was >10^6 log CPU/mL and the “number of infectious viruses” value ([1]; pH unadjusted, 50 ppm, contact 0 min) was 6.4 ± 2.7 log CPU/mL. The “number of infectious viruses” value ([1]; pH unadjusted, 50 ppm, contact 1 min) was 3.5 ± 2.1 log CPU/mL, the “number of infectious viruses” value ([1]; pH unadjusted, 50 ppm, contact 5 min) was 2.9 ± 2.7 log CPU/mL and the “number of infectious viruses” value ([1]; pH unadjusted, 50 ppm, contact 10 min) was <2.0 log CPU/mL. The “number of infectious viruses” value ([1]; pH unadjusted, 100 ppm, contact 0 min) was 6.4 ± 2.7 log CPU/mL, the “number of infectious viruses” value ([1]; pH unadjusted, 100 ppm, contact 1 min) was <2.0 log CPU/mL and the “number of infectious viruses” value ([1]; pH unadjusted, 100 ppm, contact 5 min) was <2.0 log CPU/mL. For the same compound, the “number of infectious viruses” value ([1]; pH unadjusted, 100 ppm, contact 10 min) was <2.0 log CPU/mL, the “number of infectious viruses” value ([1]; pH unadjusted, 200 ppm, contact 0 min) was 6.4 ± 2.7 log CPU/mL and the “number of infectious viruses” value ([1]; pH unadjusted, 200 ppm, contact 1 min) was <2.0 log CPU/mL. For the same compound, the “number of infectious viruses” value ([1]; pH unadjusted, 200 ppm, contact 5 min) was <2.0 log CPU/mL, the “number of infectious viruses” value ([1]; pH unadjusted, 200 ppm, contact 10 min) was <2.0 log CPU/mL and the “number of infectious viruses” value ([1]; pH unadjusted, 400 ppm, contact 0 min) was 6.4 ± 2.7 log CPU/mL. For the same compound, the “number of infectious viruses” value ([1]; pH unadjusted, 400 ppm, contact 1 min) was <2.0 log CPU/mL, the “number of infectious viruses” value ([1]; pH unadjusted, 400 ppm, contact 5 min) was <2.0 log CPU/mL and the “number of infectious viruses” value ([1]; pH unadjusted, 400 ppm, contact 10 min) was <2.0 log CPU/mL. For the same compound, the “concentration that generated dead cells” value (HEp-2 cells) was “about 0.5 ppm”, the “number of infectious viruses” value (feline caliciviruses; solution from wet wipe, 500 ppm (formulation 60 times), contact 1 min) was 3.5 ± 2.1 CPU/mL and the “number of infectious viruses” value (feline caliciviruses; solution from wet wipe, 500 ppm (formulation 60 times), contact 5 min) was 2.9 ± 2.7 CPU/mL. For the same compound, the “number of infectious viruses” value (feline caliciviruses; solution from wet wipe, 500 ppm (formulation 60 times), contact 10 min) was <100 CPU/mL, the “number of infectious viruses” value (feline caliciviruses; solution from wet wipe, 750 ppm (formulation 40 times), contact 1 min) was <100 CPU/mL and the “number of infectious viruses” value (feline caliciviruses; solution from wet wipe, 750 ppm (formulation 40 times), contact 5 min) was <100 CPU/mL. The “number of infectious viruses” value (feline caliciviruses; solution from wet wipe, 750 ppm (formulation 40 times), contact 10 min) was <100 CPU/mL, the “number of infectious viruses” value (feline caliciviruses; solution from wet wipe, 1000 ppm (formulation 30 times), contact 1 min) was <100 CPU/mL and the “number of infectious viruses” value (feline caliciviruses; solution from wet wipe, 1000 ppm (formulation 30 times), contact 5 min) was <100 CPU/mL. For the same compound, the “number of infectious viruses” value (feline caliciviruses; solution from wet wipe, 1000 ppm (formulation 30 times), contact 10 min) was <100 CPU/mL, the “number of infectious viruses” value (feline caliciviruses; solution from wet wipe, 3000 ppm (formulation 10 times), contact 1 min) was <100 CPU/mL and the “number of infectious viruses” value (feline caliciviruses; solution from wet wipe, 3000 ppm (formulation 10 times), contact 5 min) was <100 CPU/mL. For the same compound, the “number of infectious viruses” value (feline caliciviruses; solution from wet wipe, 3000 ppm (formulation 10 times), contact 10 min) was <100 CPU/mL, the “number of infectious viruses” value (feline caliciviruses; wet wipe stored Day 0, 1000 ppm, contact 1 min) was <100 and the “number of infectious viruses” value (feline caliciviruses; wet wipe stored Day 0, 1000 ppm, contact 5 min) was <100. For the same compound, the “number of infectious viruses” value (feline caliciviruses; wet wipe stored Day 0, 1000 ppm, contact 10 min) was <100, the “number of infectious viruses” value (feline caliciviruses; wet wipe stored Day 0, 3000 ppm, contact 1 min) was <100 and the “number of infectious viruses” value (feline caliciviruses; wet wipe stored Day 0, 3000 ppm, contact 5 min) was <100. For the same compound, the “number of infectious viruses” value (feline caliciviruses; wet wipe stored Day 0, 3000 ppm, contact 10 min) was <100, the “number of infectious viruses” value (feline caliciviruses; wet wipe stored Day 3, 1000 ppm, contact 1 min) was “Many” and the “number of infectious viruses” value (feline caliciviruses; wet wipe stored Day 3, 1000 ppm, contact 5 min) was “Many”. The “number of infectious viruses” value (feline caliciviruses; wet wipe stored Day 3, 1000 ppm, contact 10 min) was “Many”, the “number of infectious viruses” value (feline caliciviruses; wet wipe stored Day 3, 3000 ppm, contact 1 min) was “Many” and the “number of infectious viruses” value (feline caliciviruses; wet wipe stored Day 3, 3000 ppm, contact 5 min) was “Many”. The “number of infectious viruses” value (feline caliciviruses; wet wipe stored Day 3, 3000 ppm, contact 10 min) was “Many”.
